According to the kinase profiling compilation of Christmann-Franck et al. (2016):

Assays:
Test in all cases: radiometric filter-binding kinase assay
[1] = target: YES1 (human) (UniProt P07947)
[2] = target: EPHB1 (human) (UniProt P54762)
[3] = target: HIPK3 (human) (UniProt Q9H422)
[4] = test system: PRKAA1 or PRKAA2 (rat); conditions: accession and sequence are those of the human protein
[5] = target: PRKCZ (human) (UniProt Q05513)
[6] = target: SRC (human) (UniProt P12931)
[7] = target: CSK (human) (UniProt P41240)
[8] = target: PKN2 (human) (UniProt Q16513)
[9] = target: MAP3K5 (human) (UniProt Q99683)
[10] = target: GSK3B (human) (UniProt P49841)
[11] = test system: AKT2 (human), P31751 [S474D]
[12] = target: PAK6 (human) (UniProt Q9NQU5)
[13] = target: HIPK2 (human) (UniProt Q9H2X6)
[14] = target: MAPK1 (human) (UniProt P28482)
[15] = target: MAP3K7 TAB1 (human) (UniProt Q15750+O43318)
[16] = target: CAMKK2 (human) (UniProt Q96RR4)
[17] = target: EPHA4 (human) (UniProt P54764)
[18] = target: PLK1 (human) (UniProt P53350)
[19] = target: MAP3K9 (human) (UniProt P80192)
[20] = target: DAPK1 (human) (UniProt P53355)
[21] = test system: ROCK2 (rat); conditions: compound 1.0 µM; accession and sequence are those of the human protein
[22] = target: BRSK2 (human) (UniProt Q8IWQ3)
[23] = target: CLK2 (human) (UniProt P49760)
[24] = target: EPHB3 (human) (UniProt P54753)
[25] = target: MARK4 (human) (UniProt Q96L34)
[26] = target: EPHB4 (human) (UniProt P54760)
[27] = target: RPS6KA5 KD1 KD2 (human) (UniProt O75582)
[28] = test system: LCK (mouse); conditions: accession and sequence are those of the human protein
[29] = target: MAPK13 (human) (UniProt O15264)
[30] = target: PAK7 (human) (UniProt Q9P286)
[31] = target: SYK (human) (UniProt P43405); conditions: compound 1.0 µM
[32] = target: HIPK1 (human) (UniProt Q86Z02)
[33] = target: IGF1R (human) (UniProt P08069)

Sequence of HIPK3 (human) (Q9H422 whole entry, looked up): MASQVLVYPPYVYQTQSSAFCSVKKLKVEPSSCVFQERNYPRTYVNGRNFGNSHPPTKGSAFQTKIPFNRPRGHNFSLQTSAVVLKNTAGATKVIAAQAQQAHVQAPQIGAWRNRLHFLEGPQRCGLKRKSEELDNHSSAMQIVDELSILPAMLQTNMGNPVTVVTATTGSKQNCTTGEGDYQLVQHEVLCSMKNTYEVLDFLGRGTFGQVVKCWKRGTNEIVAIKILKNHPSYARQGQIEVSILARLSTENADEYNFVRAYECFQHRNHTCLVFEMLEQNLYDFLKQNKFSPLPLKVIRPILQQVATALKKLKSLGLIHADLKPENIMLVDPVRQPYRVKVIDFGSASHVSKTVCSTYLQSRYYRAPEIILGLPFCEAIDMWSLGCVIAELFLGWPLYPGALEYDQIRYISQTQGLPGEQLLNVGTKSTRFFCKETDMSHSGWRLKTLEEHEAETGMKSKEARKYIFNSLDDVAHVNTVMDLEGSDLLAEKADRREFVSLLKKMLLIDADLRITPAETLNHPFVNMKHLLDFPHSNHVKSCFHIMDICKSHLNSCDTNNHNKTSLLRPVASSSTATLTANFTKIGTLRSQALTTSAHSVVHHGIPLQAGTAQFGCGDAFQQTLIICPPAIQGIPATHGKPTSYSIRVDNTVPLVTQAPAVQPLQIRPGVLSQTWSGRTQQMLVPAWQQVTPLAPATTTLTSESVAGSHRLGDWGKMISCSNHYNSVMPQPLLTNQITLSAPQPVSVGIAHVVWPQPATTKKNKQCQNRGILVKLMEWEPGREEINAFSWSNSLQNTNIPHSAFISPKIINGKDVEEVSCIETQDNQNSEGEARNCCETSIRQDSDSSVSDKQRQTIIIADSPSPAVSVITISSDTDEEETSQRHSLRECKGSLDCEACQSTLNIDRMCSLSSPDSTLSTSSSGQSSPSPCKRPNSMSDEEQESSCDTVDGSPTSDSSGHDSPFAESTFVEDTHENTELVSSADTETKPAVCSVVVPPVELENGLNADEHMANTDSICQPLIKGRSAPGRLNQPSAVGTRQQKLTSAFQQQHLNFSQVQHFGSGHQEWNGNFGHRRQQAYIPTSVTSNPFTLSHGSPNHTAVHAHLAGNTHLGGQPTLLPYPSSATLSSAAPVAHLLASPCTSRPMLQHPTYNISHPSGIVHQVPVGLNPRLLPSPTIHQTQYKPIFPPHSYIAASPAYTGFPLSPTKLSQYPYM
Sequence of PRKCZ (human) (Q05513 whole entry, looked up): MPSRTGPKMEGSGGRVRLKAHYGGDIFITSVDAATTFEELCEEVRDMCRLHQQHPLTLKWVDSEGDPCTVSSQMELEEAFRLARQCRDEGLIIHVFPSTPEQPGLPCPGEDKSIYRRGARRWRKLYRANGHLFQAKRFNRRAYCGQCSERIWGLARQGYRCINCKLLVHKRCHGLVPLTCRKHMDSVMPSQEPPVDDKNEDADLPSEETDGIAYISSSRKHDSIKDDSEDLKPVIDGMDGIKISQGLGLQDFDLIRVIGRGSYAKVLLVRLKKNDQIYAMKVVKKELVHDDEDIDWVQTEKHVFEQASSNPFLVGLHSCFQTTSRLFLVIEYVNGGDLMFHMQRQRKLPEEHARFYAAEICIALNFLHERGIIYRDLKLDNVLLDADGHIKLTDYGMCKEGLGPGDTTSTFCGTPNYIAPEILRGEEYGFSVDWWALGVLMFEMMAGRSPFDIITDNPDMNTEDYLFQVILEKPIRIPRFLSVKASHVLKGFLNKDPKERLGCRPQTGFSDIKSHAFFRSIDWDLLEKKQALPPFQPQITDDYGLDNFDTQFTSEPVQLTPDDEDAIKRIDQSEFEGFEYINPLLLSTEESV
Sequence of HIPK2 (human) (Q9H2X6 whole entry, looked up): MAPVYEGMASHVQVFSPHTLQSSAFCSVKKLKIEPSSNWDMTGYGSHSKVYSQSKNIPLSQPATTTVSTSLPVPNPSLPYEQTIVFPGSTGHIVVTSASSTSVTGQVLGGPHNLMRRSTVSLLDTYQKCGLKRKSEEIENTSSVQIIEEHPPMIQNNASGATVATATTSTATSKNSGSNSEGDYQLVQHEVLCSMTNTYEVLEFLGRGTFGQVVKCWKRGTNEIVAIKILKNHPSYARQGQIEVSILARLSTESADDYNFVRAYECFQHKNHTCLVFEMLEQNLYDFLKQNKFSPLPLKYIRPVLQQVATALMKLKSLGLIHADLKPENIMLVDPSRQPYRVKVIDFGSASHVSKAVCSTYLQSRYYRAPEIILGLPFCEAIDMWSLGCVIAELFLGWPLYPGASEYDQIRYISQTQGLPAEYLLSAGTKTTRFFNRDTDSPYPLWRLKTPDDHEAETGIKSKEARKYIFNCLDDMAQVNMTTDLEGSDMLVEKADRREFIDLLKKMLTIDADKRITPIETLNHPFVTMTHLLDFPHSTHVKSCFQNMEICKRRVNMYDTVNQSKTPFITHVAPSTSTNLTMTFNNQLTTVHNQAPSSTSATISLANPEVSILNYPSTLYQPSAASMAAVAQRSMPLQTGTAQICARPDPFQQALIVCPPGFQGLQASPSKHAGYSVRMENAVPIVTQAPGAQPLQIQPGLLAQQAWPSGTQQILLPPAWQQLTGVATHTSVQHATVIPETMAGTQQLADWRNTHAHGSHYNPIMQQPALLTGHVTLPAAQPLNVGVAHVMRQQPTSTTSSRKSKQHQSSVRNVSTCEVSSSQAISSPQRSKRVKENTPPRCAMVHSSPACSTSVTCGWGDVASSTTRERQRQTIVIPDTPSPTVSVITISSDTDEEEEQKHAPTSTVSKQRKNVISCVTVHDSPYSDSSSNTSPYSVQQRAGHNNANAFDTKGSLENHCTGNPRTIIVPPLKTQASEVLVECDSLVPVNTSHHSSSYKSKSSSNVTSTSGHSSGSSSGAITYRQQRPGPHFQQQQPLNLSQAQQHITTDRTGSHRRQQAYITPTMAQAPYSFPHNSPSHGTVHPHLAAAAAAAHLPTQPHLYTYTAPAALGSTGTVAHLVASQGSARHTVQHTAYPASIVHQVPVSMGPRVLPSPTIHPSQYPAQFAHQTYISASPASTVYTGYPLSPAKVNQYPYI
Sequence of GSK3B (human) (P49841 whole entry, looked up): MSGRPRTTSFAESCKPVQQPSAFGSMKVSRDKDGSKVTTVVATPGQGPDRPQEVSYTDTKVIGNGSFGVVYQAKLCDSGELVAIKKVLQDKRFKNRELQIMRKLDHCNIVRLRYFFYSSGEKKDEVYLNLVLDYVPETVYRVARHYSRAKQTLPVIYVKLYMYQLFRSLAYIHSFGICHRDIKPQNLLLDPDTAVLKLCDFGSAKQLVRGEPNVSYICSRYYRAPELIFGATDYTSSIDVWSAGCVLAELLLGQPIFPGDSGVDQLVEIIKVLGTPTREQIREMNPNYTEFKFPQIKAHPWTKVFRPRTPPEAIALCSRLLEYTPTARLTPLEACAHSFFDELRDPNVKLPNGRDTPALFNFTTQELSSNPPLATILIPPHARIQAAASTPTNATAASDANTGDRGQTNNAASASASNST
Sequence of MAP3K9 (human) (P80192 whole entry, looked up): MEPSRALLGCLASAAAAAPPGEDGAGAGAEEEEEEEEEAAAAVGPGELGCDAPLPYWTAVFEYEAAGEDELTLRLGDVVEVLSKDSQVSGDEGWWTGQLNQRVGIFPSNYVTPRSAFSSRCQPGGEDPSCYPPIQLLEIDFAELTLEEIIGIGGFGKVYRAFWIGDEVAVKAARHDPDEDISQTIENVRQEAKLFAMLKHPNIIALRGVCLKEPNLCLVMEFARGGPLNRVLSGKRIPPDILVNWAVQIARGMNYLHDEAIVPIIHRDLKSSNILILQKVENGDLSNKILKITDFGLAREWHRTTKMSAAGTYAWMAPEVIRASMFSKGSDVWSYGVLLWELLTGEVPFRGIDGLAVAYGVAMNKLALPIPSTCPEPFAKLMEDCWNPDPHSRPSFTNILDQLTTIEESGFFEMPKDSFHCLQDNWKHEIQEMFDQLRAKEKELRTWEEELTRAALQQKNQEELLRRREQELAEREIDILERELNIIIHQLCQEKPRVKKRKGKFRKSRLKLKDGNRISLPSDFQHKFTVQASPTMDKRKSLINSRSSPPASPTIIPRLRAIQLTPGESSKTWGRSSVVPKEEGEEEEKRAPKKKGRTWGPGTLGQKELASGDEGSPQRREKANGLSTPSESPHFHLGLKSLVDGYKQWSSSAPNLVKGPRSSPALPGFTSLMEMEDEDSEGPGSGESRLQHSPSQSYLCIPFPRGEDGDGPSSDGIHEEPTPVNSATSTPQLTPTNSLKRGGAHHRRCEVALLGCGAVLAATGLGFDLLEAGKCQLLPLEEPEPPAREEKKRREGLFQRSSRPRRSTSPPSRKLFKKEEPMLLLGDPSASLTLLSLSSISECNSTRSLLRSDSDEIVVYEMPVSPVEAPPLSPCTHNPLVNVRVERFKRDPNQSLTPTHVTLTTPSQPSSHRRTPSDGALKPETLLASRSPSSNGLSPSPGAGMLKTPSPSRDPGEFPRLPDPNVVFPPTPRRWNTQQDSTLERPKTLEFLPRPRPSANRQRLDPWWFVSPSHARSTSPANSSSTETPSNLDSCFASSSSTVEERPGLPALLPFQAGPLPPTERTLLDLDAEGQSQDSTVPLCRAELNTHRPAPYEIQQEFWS
Sequence of YES1 (human) (P07947 whole entry, looked up): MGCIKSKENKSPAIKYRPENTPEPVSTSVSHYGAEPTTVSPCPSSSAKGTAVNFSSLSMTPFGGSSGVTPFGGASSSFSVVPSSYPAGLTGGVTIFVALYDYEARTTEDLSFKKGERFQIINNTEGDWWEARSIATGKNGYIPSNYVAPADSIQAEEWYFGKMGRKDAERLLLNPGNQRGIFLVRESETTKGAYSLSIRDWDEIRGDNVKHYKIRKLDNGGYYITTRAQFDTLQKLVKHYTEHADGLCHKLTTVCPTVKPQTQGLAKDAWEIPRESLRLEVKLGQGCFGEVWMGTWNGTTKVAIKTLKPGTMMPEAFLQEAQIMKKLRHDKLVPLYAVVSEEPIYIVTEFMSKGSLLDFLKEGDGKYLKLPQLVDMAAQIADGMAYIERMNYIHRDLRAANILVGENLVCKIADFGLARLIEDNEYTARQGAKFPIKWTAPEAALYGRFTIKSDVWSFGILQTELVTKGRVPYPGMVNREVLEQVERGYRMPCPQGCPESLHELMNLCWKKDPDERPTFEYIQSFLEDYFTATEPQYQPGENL

residual activity ([1]; compound 1.0 µM): 82% | residual activity ([1]; compound 10.0 µM): 86% | residual activity ([2]; compound 1.0 µM): 95% | residual activity ([2]; compound 10.0 µM): 115% | residual activity ([3]; compound 1.0 µM): 101% | residual activity ([3]; compound 10.0 µM): 107% | residual activity ([4]; compound 1.0 µM): 110% | residual activity ([4]; compound 10.0 µM): 107% | residual activity ([5]; compound 1.0 µM): 97% | residual activity ([5]; compound 10.0 µM): 104% | residual activity ([6]; compound 1.0 µM): 104% | residual activity ([6]; compound 10.0 µM): 91% | residual activity ([7]; compound 1.0 µM): 93% | residual activity ([7]; compound 10.0 µM): 98% | residual activity ([8]; compound 1.0 µM): 82% | residual activity ([8]; compound 10.0 µM): 83% | residual activity ([9]; compound 1.0 µM): 108% | residual activity ([9]; compound 10.0 µM): 116% | residual activity ([10]; compound 1.0 µM): 70% | residual activity ([10]; compound 10.0 µM): 88% | residual activity ([11]; compound 1.0 µM): 95% | residual activity ([11]; compound 10.0 µM): 82% | residual activity ([12]; compound 1.0 µM): 95% | residual activity ([12]; compound 10.0 µM): 105% | residual activity ([13]; compound 1.0 µM): 93% | residual activity ([13]; compound 10.0 µM): 104% | residual activity ([14]; compound 1.0 µM): 90% | residual activity ([14]; compound 10.0 µM): 100% | residual activity ([15]; compound 1.0 µM): 77% | residual activity ([15]; compound 10.0 µM): 82% | residual activity ([16]; compound 1.0 µM): 92% | residual activity ([16]; compound 10.0 µM): 94% | residual activity ([17]; compound 1.0 µM): 86% | residual activity ([17]; compound 10.0 µM): 89% | residual activity ([18]; compound 1.0 µM): 81% | residual activity ([18]; compound 10.0 µM): 92% | residual activity ([19]; compound 1.0 µM): 95% | residual activity ([19]; compound 10.0 µM): 108% | residual activity ([20]; compound 1.0 µM): 96% | residual activity ([20]; compound 10.0 µM): 90% | residual activity [21]: 84% | residual activity ([22]; compound 1.0 µM): 94% | residual activity ([22]; compound 10.0 µM): 96% | residual activity ([23]; compound 1.0 µM): 103% | residual activity ([23]; compound 10.0 µM): 85% | residual activity ([24]; compound 1.0 µM): 101% | residual activity ([24]; compound 10.0 µM): 113% | residual activity ([25]; compound 1.0 µM): 112% | residual activity ([25]; compound 10.0 µM): 127% | residual activity ([26]; compound 1.0 µM): 90% | residual activity ([26]; compound 10.0 µM): 99% | residual activity ([27]; compound 1.0 µM): 97% | residual activity ([27]; compound 10.0 µM): 96% | residual activity ([28]; compound 1.0 µM): 92% | residual activity ([28]; compound 10.0 µM): 109% | residual activity ([29]; compound 1.0 µM): 85% | residual activity ([29]; compound 10.0 µM): 97% | residual activity ([30]; compound 1.0 µM): 104% | residual activity ([30]; compound 10.0 µM): 85% | residual activity [31]: 111% | residual activity ([32]; compound 1.0 µM): 84% | residual activity ([32]; compound 10.0 µM): 92% | residual activity ([33]; compound 1.0 µM): 88% | residual activity ([33]; compound 10.0 µM): 113%
Structure (SMILES): O=C(NOC[C@H](O)CO)c1ccc(F)c(F)c1Nc1ccc(I)cc1Cl
